Results: patent publication US12378224B2 (Dong-A Socio Holdings Co., Ltd., priority 2016, dated 2025)

molecular target: human MER (528-end) (Homo sapiens (Human), UniProt Q12866); experiment: HTRF Kinase Activity Biochemical Assay (KinEASE-TK); conditions: 10 uM ATP
Experimental: For the SAR (structure-activity relationship) and compound screening, HTRF (Homogeneous Time Resolved Fluorescence) kinase activity assay was employed for all MER, AXL and TYRO3 kinases using Cisbio HTRF® KinEASE™-TK kit (Cisbio, USA). The kit includes biotin-labeled TK substrate, streptavidin-XL665, Eu3+-cryptate-labeled TK antibody and HTRF® Detection buffer. There are two main steps in the kinase assay: kinase reaction and detection of phosphorylated substrate. The reaction was carried out in white low volume 384-well plate (Corning, USA) with 25 nL compound in dimethyl sulfoxide in each well. […] Then the reaction was stopped after 1 hour incubation at room temperature by adding 5 uL of HTRF® Detection buffer which also contains 0.375 nM Eu3+-cryptate-labeled TK antibody and 0.062 uM streptavidin-XL665(SA-XL665) to allow for detection of the phosphorylated peptide product. After 1 h incubation at room temperature, the fluorescence intensity was measured with Envision™ plate reader (PerkinElmer, USA). Upon excitation at 340 nm by UV, the energy from Eu3+ donor of the antibody is transferred to the FRET acceptor XL665, and […] emits light at 665 nm. The level of kinase activity was quantified by the HTRF ratio that calculated from the intensity of emission at 665 nm and emission at 620 nm (fluorescence intensity @ 665 nm/fluorescence intensity @ 620 nm×10,000). The recombinant protein of human MER (528-end) was purchased from Carnabio, Japan. The recombinant human AXL (473-end) and TYRO3 (455-end) were purchased from SignalChem, Canada.

human MER (528-end), sequence (Q12866 528-999 limits assumed): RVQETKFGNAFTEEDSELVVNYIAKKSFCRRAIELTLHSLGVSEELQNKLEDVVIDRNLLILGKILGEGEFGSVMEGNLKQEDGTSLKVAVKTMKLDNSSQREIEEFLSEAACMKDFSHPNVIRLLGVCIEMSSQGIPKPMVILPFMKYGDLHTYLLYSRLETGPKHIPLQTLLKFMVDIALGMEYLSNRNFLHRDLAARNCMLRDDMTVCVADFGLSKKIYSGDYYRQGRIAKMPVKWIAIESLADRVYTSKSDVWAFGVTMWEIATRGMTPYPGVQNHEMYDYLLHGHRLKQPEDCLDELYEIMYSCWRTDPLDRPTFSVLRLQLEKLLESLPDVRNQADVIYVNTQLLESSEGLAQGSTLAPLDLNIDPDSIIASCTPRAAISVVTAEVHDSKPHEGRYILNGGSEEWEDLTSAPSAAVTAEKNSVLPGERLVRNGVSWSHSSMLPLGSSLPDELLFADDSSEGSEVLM

Compound	IC50
Cn1cc(-c2cnc(N)c(C(=O)N[C@@H]3CCN(C(=O)Nc4cc(Cl)cc(Cl)c4)C3)c2)cn1 [Example 34, (R)-2-amino-N-(1-((3,5-dichlorophenyl)carbamoyl)pyrrolidin-3-yl)-5-(1-methyl-1H-pyrazol-4-yl)nicotinamide]	100 to 1000 nM
Nc1ncc(-c2ccc(CN3CCOCC3)cc2)cc1C(=O)N[C@@H]1CCN(C(=O)Nc2cccc(-c3ccccc3)c2)C1 [Example 38, (R)—N-(1-([1,1′-biphenyl]-3-ylcarbamoyl)pyrrolidin-3-yl)-2-amino-5-(4-(morpholinomethyl)phenyl)nicotinamide]	10 to 100 nM
Cn1cc(-c2cnc(N)c(C(=O)N[C@@H]3CCN(C(=O)N[C@H]4CCC[C@@H]4OCc4ccccc4)C3)c2)cn1 [Example 40, 2-amino-N—((R)-1-(((1S,2S)-2-(benzyloxy)cyclopentyl)carbamoyl)pyrrolidin-3-yl)-5-(1-methyl-1H-pyrazol-4-yl)nicotinamide]	> 1000 nM
Cn1cc(-c2cnc(N)c(C(=O)N[C@@H]3CCN(C(=O)NC4CCC(OCc5ccccc5)C4)C3)c2)cn1 (stereo partly drawn) [Example 41, 2-amino-N-((3R)-1-((3-(benzyloxy)cyclopentyl)carbamoyl)pyrrolidin-3-yl)-5-(1-methyl-1H-pyrazol-4-yl)nicotinamide]	> 1000 nM
Cn1cc(-c2cnc(N)c(C(=O)N[C@@H]3CCN(C(=S)Nc4ccc(F)cc4)C3)c2)cn1 [Example 42, (R)-2-amino-N-(1-((4-fluorophenyl)carbamothioyl)pyrrolidin-3-yl)-5-(1-methyl-1H-pyrazol-4-yl)nicotinamide]	> 1000 nM
Cn1cc(-c2cnc(N)c(C(=O)N[C@@H]3CCN(C(=S)NCc4ccccc4)C3)c2)cn1 [Example 43, (R)-2-amino-N-(1-(benzylcarbamothioyl)pyrrolidin-3-yl)-5-(1-methyl-1H-pyrazol-4-yl)nicotinamide]	> 1000 nM
Cn1cc(-c2cnc(N)c(C(=O)N[C@@H]3CCN(C(=S)Nc4ccc(Cl)c(Cl)c4)C3)c2)cn1 [Example 44, (R)-2-amino-N-(1-((3,4-dichlorophenyl)carbamothioyl)pyrrolidin-3-yl)-5-(1-methyl-1H-pyrazol-4-yl)nicotinamide]	> 1000 nM
COc1ccc(NC(=S)N2CC[C@@H](NC(=O)c3cc(-c4cnn(C)c4)cnc3N)C2)cc1 [Example 45, (R)-2-amino-N-(1-((4-methoxyphenyl)carbamothioyl)pyrrolidin-3-yl)-5-(1-methyl-1H-pyrazol-4-yl)nicotinamide]	> 1000 nM
Cn1cc(-c2cnc(N)c(C(=O)N[C@@H]3CCN(C(=S)Nc4ccc(Br)cc4)C3)c2)cn1 [Example 46, (R)-2-amino-N-(1-((4-bromophenyl)carbamothioyl)pyrrolidin-3-yl)-5-(1-methyl-1H-pyrazol-4-yl)nicotinamide]	> 1000 nM
Cn1cc(-c2cnc(N)c(C(=O)N[C@@H]3CCN(C(=S)Nc4ccc([N+](=O)[O-])cc4)C3)c2)cn1 [Example 47, (R)-2-amino-5-(1-methyl-1H-pyrazol-4-yl)-N-(1-((4-nitrophenyl)carbamothioyl)pyrrolidin-3-yl)nicotinamide]	> 1000 nM
CN(C)c1ccc(NC(=S)N2CC[C@@H](NC(=O)c3cc(-c4cnn(C)c4)cnc3N)C2)cc1 [Example 48, (R)-2-amino-N-(1-((4-(dimethylamino)phenyl)carbamothioyl)pyrrolidin-3-yl)-5-(1-methyl-1H-pyrazol-4-yl)nicotinamide]	> 1000 nM
Cn1cc(-c2cnc(N)c(C(=O)N[C@@H]3CCN(C(=S)Nc4cc(Cl)cc(Cl)c4)C3)c2)cn1 [Example 50, (R)-2-amino-N-(1-((3,5-dichlorophenyl)carbamothioyl)pyrrolidin-3-yl)-5-(1-methyl-1H-pyrazol-4-yl)nicotinamide]	100 to 1000 nM
Cn1cc(-c2cnc(N)c(C(=O)N[C@@H]3CCN(C(=S)Nc4cccc(-c5ccccc5)c4)C3)c2)cn1 [Example 51, (R)—N-(1-([1,1′-biphenyl]-3-ylcarbamothioyl)pyrrolidin-3-yl)-2-amino-5-(1-methyl-1H-pyrazol-4-yl)nicotinamide]	100 to 1000 nM
Cn1cc(-c2cnc(N)c(C(=O)N[C@@H]3CCN(C(=S)Nc4cccc(Br)c4)C3)c2)cn1 [Example 52, (R)-2-amino-N-(1-((3-bromophenyl)carbamothioyl)pyrrolidin-3-yl)-5-(1-methyl-1H-pyrazol-4-yl)nicotinamide]	> 1000 nM
Cn1cc(-c2cnc(N)c(C(=O)N[C@@H]3CCN(C(=O)Oc4ccccc4)C3)c2)cn1 [Example 54, phenyl (R)-3-(2-amino-5-(1-methyl-1H-pyrazol-4-yl)nicotinamido)pyrrolidine-1-carboxylate]	> 1000 nM
Cn1cc(-c2cnc(N)c(C(=O)N[C@@H]3CCN(C(=O)Oc4cccc(C(=O)N5CCCCC5)c4)C3)c2)cn1 [Example 55, 3-(piperidine-1-carbonyl)phenyl (R)-3-(2-amino-5-(1-methyl-1H-pyrazol-4-yl)nicotinamido)pyrrolidine-1-carboxylate]	> 1000 nM
Cn1cc(-c2cnc(N)c(C(=O)N[C@@H]3CCN(C(=O)Oc4ccc5c(c4)CCCC5)C3)c2)cn1 [Example 56, 5,6,7,8-tetrahydronaphthalen-2-yl (R)-3-(2-amino-5-(1-methyl-1H-pyrazol-4-yl)nicotinamido)pyrrolidine-1-carboxylate]	100 to 1000 nM
Cc1cc(OC(=O)N2CC[C@@H](NC(=O)c3cc(-c4cnn(C)c4)cnc3N)C2)cc(C(C)C)c1 [Example 57, 3-isopropyl-5-methylphenyl (R)-3-(2-amino-5-(1-methyl-1H-pyrazol-4-yl)nicotinamido)pyrrolidine-1-carboxylate]	> 1000 nM
Cn1cc(-c2cnc(N)c(C(=O)N[C@@H]3CCN(C(=O)Oc4ccccc4OCc4ccccc4)C3)c2)cn1 [Example 58, 2-(benzyloxy)phenyl (R)-3-(2-amino-5-(1-methyl-1H-pyrazol-4-yl)nicotinamido)pyrrolidine-1-carboxylate]	> 1000 nM
Cn1cc(-c2cnc(N)c(C(=O)N[C@@H]3CCN(C(=O)Oc4cccc(OCc5ccccc5)c4)C3)c2)cn1 [Example 59, 3-(benzyloxy)phenyl (R)-3-(2-amino-5-(1-methyl-1H-pyrazol-4-yl)nicotinamido)pyrrolidine-1-carboxylate]	> 1000 nM
Cn1cc(-c2cnc(N)c(C(=O)N[C@@H]3CCN(C(=O)Oc4cccc(Cl)c4Cl)C3)c2)cn1 [Example 60, 2,3-dichlorophenyl (R)-3-(2-amino-5-(1-methyl-1H-pyrazol-4-yl)nicotinamido)pyrrolidine-1-carboxylate]	> 1000 nM
Cn1cc(-c2cnc(N)c(C(=O)N[C@@H]3CCN(C(=O)Oc4cc(Cl)ccc4Cl)C3)c2)cn1 [Example 61, 2,5-dichlorophenyl (R)-3-(2-amino-5-(1-methyl-1H-pyrazol-4-yl)nicotinamido)pyrrolidine-1-carboxylate]	> 1000 nM
Cn1cc(-c2cnc(N)c(C(=O)N[C@@H]3CCN(C(=O)Oc4ccccc4C#N)C3)c2)cn1 [Example 62, 2-cyanophenyl (R)-3-(2-amino-5-(1-methyl-1H-pyrazol-4-yl)nicotinamido)pyrrolidine-1-carboxylate]	> 1000 nM
COc1cc(Br)ccc1OC(=O)N1CC[C@@H](NC(=O)c2cc(-c3cnn(C)c3)cnc2N)C1 [Example 63, 4-bromo-2-methoxyphenyl (R)-3-(2-amino-5-(1-methyl-1H-pyrazol-4-yl)nicotinamido)pyrrolidine-1-carboxylate]	> 1000 nM
